Measurements: ChEMBL document CHEMBL4765403, “Augmentation of the antitumor effects of PARP inhibitors in triple-negative breast cancer via degradation by hydrophobic tagging modulation” (Eur J Med Chem, 2020)
pIC50: −log10 of the molar value. Calls of active or inactive are those of the source. No cut-off for these calls is given here.

Key:
MDA-MB-468 [1] = experiment: Induction of endoplasmic reticulum stress in human MDA-MB-468 cells assessed as increase in CHOP protein expression at 5 uM incubated for 48 hrs by Western blot analysis; type: functional, cell-based
[2] = molecular target: Poly [ADP-ribose] polymerase 1 (Homo sapiens) (UniProt P09874); experiment: Induction of PARP1 degradation in triple-negative human MDA-MB-231 cells assessed as fold change in PARP1 protein expression at 0.5 uM incubated for 48 hrs by Western blot analysis relative to control; type: cell-based
Poly [ADP-ribose] polymerase 1 (Homo sapiens), sequence (P09874 whole entry): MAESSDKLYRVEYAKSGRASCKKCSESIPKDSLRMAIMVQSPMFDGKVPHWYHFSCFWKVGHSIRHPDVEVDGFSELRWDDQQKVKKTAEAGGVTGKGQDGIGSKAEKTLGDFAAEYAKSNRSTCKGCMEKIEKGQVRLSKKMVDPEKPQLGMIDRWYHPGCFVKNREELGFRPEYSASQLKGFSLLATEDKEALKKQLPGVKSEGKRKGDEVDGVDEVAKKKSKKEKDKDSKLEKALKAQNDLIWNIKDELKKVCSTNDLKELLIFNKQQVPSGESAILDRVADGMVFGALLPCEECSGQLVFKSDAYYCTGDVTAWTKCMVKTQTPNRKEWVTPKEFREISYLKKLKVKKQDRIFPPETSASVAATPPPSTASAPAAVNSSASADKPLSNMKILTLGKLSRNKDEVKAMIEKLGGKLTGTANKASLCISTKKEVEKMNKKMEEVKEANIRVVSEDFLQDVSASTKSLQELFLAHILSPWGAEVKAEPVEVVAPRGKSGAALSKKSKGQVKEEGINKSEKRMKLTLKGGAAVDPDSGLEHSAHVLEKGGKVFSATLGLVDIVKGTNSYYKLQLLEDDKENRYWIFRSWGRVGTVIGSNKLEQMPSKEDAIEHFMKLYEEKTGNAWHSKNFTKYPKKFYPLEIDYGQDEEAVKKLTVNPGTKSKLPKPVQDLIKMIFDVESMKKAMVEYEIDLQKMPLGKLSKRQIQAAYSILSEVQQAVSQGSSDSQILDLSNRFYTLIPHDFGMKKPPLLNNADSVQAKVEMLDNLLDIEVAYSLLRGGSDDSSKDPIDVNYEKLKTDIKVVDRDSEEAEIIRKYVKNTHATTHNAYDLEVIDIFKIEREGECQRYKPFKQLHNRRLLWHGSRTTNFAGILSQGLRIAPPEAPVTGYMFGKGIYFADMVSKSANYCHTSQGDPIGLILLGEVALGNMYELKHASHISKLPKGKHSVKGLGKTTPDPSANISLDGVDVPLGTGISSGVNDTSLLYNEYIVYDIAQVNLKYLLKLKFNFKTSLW

MDA-MB-231 [3] = experiment: Cytotoxicity against human MDA-MB-231 cells assessed as reduction in cell viability measured after 96 hrs by CCK8 assay; type: functional, cell-based; settings: MDA-MB-231, 96 h
[4] = molecular target: Poly [ADP-ribose] polymerase 1 (Homo sapiens) (UniProt P09874); experiment: Induction of PARP1 degradation in human MDA-MB-468 cells assessed as fold change in PARP1 protein expression at 5 uM incubated for 48 hrs in presence of pan-caspase inhibitor, Z-VAD-FMK by Western blot analysis; type: cell-based
MDA-MB-468 [5] = experiment: Induction of apoptosis in human MDA-MB-468 cells assessed as increase in p21 protein expression at 5 uM incubated for 48 hrs by Western blot analysis; type: functional, cell-based
MDA-MB-231 [6] = experiment: Induction of autophagy in human MDA-MB-231 cells assessed as autophagosome, large double membrane-bound vesicles enclosing cytoplasmic components formation at 5 uM incubated for 24 to 48 hrs by transmission electron microscopy; type: functional, cell-based; settings: time 24-48 hrs
[7] = molecular target: Poly [ADP-ribose] polymerase 1 (Homo sapiens) (UniProt P09874); experiment: Induction of PARP1 degradation in triple negative human MDA-MB-231 cells assessed as fold change in PARP1 protein expression at 5 uM incubated for 48 hrs by Western blot analysis relative to control; type: cell-based
MDA-MB-231 [8] = experiment: Induction of endoplasmic reticulum stress in human MDA-MB-231 cells assessed as increase in XBP-1s protein expression at 5 uM measured after 24 to 72 hrs by Western blot analysis; type: functional, cell-based; settings: time 24-72 hrs
MDA-MB-231 [9] = experiment: Induction of apoptosis in human MDA-MB-231 cells assessed as decrease in Bcl2 protein expression at 5 uM incubated for 24 to 48 hrs by Western blot analysis; type: functional, cell-based; settings: time 24-48 hrs
[10] = molecular target: Poly [ADP-ribose] polymerase 1 (Homo sapiens) (UniProt P09874); experiment: Induction of PARP1 degradation in human MDA-MB-468 cells at 5 uM incubated for 48 hrs in presence 5 uM PARP1 inhibitor olaparib by Western blot analysis; type: cell-based
MDA-MB-231 [11] = experiment: Induction of apoptosis in human MDA-MB-231 cells assessed as downregulation in Bcl2 gene expression at 5 to 10 uM incubated for 24 to 48 hrs by RT-PCR analysis; type: functional, cell-based; settings: dose 5-10 µM, time 24-48 hrs
[12] = molecular target: Poly [ADP-ribose] polymerase 1 (Homo sapiens) (UniProt P09874); experiment: Induction of PARP1 degradation in human MDA-MB-231 cells at 5 uM incubated for 48 hrs in presence of proteasome inhibitor, bortezomib by immunoblotting analysis; type: cell-based
MDA-MB-231 [13] = experiment: Cytotoxicity against human MDA-MB-231 cells assessed as reduction in cell growth at 5 uM measured after 96 hrs by CCK8 assay relative to control; type: functional
MDA-MB-231 [14] = experiment: Induction of endoplasmic reticulum stress in human MDA-MB-231 cells assessed as upregulation in CHOP gene expression at 5 to 10 uM incubated for 24 to 48 hrs by RT-PCR analysis; type: functional, cell-based; settings: dose 5-10 µM, time 24-48 hrs
MDA-MB-231 [15] = experiment: Induction of apoptosis in human MDA-MB-231 cells assessed as increase in p21 protein expression at 5 uM incubated for 24 to 48 hrs by Western blot analysis; type: functional, cell-based; settings: time 24-48 hrs
MDA-MB-231 [16] = experiment: Cytotoxicity against triple-negative human MDA-MB-231 cells assessed as reduction in cell viability measured after 48 hrs by CCK8 assay; type: functional, cell-based; settings: MDA-MB-231, 48 h
MDA-MB-231 [17] = experiment: Induction of apoptosis in human MDA-MB-231 cells assessed as increase in cytochrome C protein expression at 5 uM incubated for 24 to 48 hrs by Western blot analysis; type: functional, cell-based; settings: time 24-48 hrs
MDA-MB-231 [18] = experiment: Induction of endoplasmic reticulum stress in human MDA-MB-231 cells assessed as increase in CHOP protein expression at 5 uM measured after 24 to 72 hrs by Western blot analysis; type: functional, cell-based; settings: time 24-72 hrs
[19] = molecular target: Poly [ADP-ribose] polymerase 1 (Homo sapiens) (UniProt P09874); experiment: Induction of PARP1 degradation in human MDA-MB-231 cells assessed as fold change in PARP1 protein expression at 5 uM incubated for 48 hrs in presence of caspase I inhibitor, Ac-YVAD-cmk by Western blot analysis relative to control; type: cell-based
[20] = molecular target: Poly [ADP-ribose] polymerase 1 (Homo sapiens) (UniProt P09874); experiment: Induction of PARP1 degradation in triple negative human MDA-MB-468 cells assessed as fold change in PARP1 protein expression at 5 uM incubated for 48 hrs by Western blot analysis relative to control; type: cell-based
MDA-MB-231 [21] = experiment: Induction of autophagy in human MDA-MB-231 cells assessed as upregulation in LC3A gene expression at 5 to 10 uM measured after 24 to 48 hrs by RT-PCR analysis; type: functional, cell-based; settings: dose 5-10 µM, time 24-48 hrs
[22] = molecular target: Poly [ADP-ribose] polymerase 1 (Homo sapiens) (UniProt P09874); experiment: Induction of PARP1 degradation in human MDA-MB-231 cells assessed as fold change in PARP1 protein expression at 5 uM pretreated with caspase I inhibitor, Ac-YVAD-cmk for 2 hrs followed by incubation with compound for 48 hrs by Western blot analysis relative to control; type: cell-based
[23] = molecular target: Poly [ADP-ribose] polymerase 1 (Homo sapiens) (UniProt P09874); experiment: Induction of PARP1 degradation in triple-negative human MDA-MB-231 cells assessed as fold change in PARP1 protein expression at 2.5 uM incubated for 48 hrs by Western blot analysis relative to control; type: cell-based
[24] = molecular target: Poly [ADP-ribose] polymerase 1 (Homo sapiens) (UniProt P09874); experiment: Induction of PARP1 degradation in triple-negative human MDA-MB-468 cells assessed as fold change in PARP1 protein expression at 5 uM incubated for 24 hrs by Western blot analysis relative to control; type: cell-based
[25] = molecular target: Poly [ADP-ribose] polymerase 1 (Homo sapiens) (UniProt P09874); experiment: Induction of PARP1 degradation in triple-negative human MDA-MB-231 cells assessed as fold change in PARP1 protein expression at 0.01 uM incubated for 24 hrs by Western blot analysis relative to control; type: cell-based
MDA-MB-468 [26] = experiment: Induction of endoplasmic reticulum stress in human MDA-MB-468 cells assessed as increase in XBP-1s protein expression at 5 uM incubated for 48 hrs by Western blot analysis; type: functional, cell-based
[27] = molecular target: Poly [ADP-ribose] polymerase 1 (Homo sapiens) (UniProt P09874); experiment: Induction of PARP1 degradation in triple-negative human MDA-MB-231 cells assessed as fold change in PARP1 protein expression at 2.5 uM incubated for 24 hrs by Western blot analysis relative to control; type: cell-based
MDA-MB-231 [28] = experiment: Induction of autophagy in human MDA-MB-231 cells assessed as upregulation in LC3B gene expression at 5 to 10 uM measured after 24 to 48 hrs by RT-PCR analysis; type: functional, cell-based; settings: dose 5-10 µM, time 24-48 hrs

fold change (FC) [2]: 0.6
fold change (FC) [4]: 0.4
fold change (FC) [7]: 0.1
Activity [10]: inactive
Activity [12]: inactive
fold change (FC) [19]: 0.3
fold change (FC) [20]: 0.3
fold change (FC) [22]: 0.3
fold change (FC) [23]: 0.1
fold change (FC) [24]: 0.8
fold change (FC) [25]: 0.9
fold change (FC) [27]: 0.8
SMILES: O=C(CC1c2ccccc2-c2ccccc21)N1CCN(C(=O)c2cc(Cc3n[nH]c(=O)c4ccccc34)ccc2F)CC1
Activity (MDA-MB-468 [1]): Active
pIC50 (MDA-MB-231 [3]): 5.68
Activity (MDA-MB-468 [5]): Active
Activity (MDA-MB-231 [6]): Active
Activity (MDA-MB-231 [8]): Active
Activity (MDA-MB-231 [9]): Active
Activity (MDA-MB-231 [11]): Active
inhibition at 5 µM (MDA-MB-231 [13]): 80%
Activity (MDA-MB-231 [14]): Active
Activity (MDA-MB-231 [15]): Active
pIC50 (MDA-MB-231 [16]): 4.97
Activity (MDA-MB-231 [17]): Active
Activity (MDA-MB-231 [18]): Active
Activity (MDA-MB-231 [21]): Active
Activity (MDA-MB-468 [26]): Active
Activity (MDA-MB-231 [28]): Active
